The record followed here is article PMC10046562, “Computational Analysis and Experimental Testing of the Molecular Mode of Action of Gatastatin and Its Derivatives” (Cancers, 2023).

This assay addresses T1, α-β tubulin (β tubulin, porcine brain) (Sus scrofa, UniProt P02550+P02554).
T1 construct: α-β tubulin purified from porcine brains, labeled with RED-NHS; with α tubulin
Kind of assay: microscale thermophoresis, labeled tubulin. The class given is binding. For orientation: In MST a laser heats a spot of the sample, and binding alters the fluorescence response.

T1 sequence (P02554 whole entry): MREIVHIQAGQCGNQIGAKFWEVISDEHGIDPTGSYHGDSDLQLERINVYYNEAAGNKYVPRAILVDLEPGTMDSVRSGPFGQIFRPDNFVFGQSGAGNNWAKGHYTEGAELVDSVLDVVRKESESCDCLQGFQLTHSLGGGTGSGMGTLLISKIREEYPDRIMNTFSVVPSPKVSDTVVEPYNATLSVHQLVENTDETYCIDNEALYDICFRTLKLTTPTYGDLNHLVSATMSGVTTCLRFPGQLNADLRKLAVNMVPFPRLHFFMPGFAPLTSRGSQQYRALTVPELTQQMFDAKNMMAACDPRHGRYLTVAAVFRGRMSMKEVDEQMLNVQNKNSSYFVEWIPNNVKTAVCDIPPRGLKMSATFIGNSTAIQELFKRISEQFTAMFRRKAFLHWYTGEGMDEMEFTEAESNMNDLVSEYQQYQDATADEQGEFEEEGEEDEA
T1 sequence (P02550 whole entry): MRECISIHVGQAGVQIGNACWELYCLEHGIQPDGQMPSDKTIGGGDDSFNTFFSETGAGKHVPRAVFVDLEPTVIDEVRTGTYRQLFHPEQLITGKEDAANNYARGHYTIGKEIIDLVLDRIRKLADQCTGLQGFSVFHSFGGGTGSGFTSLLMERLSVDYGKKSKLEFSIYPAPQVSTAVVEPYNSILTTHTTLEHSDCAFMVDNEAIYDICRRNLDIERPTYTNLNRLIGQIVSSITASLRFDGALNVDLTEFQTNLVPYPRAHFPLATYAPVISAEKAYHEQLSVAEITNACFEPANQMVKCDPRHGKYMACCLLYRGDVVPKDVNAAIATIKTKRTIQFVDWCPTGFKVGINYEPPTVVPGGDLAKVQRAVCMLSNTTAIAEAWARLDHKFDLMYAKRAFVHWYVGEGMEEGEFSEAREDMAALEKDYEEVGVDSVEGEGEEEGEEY

The Kd is the equilibrium constant for the complex coming apart. High values mean a looser complex, low ones a tighter complex. `COc1cc2c(=O)c(-c3cc(OC)c4c(c3OC)OCO4)coc2cc1OCc1ccccc1` [gatastatin] came in with a dissociation constant (Kd) of 2160 ± 470 nM.
